One assay concerns the target T1, hP2X1 (Homo sapiens, UniProt P51575).
T1 construct: The hP2X1-WT, hP2X2-WT, hP2X3-WT, hP2X4-WT, and hP2X7-WT constructs used for electrophysiology are similarly unmodified full-length, wild-type receptor constructs; expressed in transfected cells; host or cells: Xenopus laevis oocytes injected with mRNA made from pcDNA3.1x
T1 sequence (P51575 1-399): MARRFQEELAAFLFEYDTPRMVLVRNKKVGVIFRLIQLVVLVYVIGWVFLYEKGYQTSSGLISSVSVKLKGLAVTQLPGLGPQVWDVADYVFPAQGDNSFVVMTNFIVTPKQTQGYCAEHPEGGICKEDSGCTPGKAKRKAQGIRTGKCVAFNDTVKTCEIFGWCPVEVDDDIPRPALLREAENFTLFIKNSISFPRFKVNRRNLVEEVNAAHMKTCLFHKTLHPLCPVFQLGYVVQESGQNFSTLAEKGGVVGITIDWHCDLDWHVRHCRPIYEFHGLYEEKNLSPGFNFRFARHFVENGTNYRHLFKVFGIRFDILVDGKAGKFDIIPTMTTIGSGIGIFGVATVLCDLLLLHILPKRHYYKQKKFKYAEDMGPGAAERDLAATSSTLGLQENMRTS
Description: TEVC inhibition dose-response (IC50), hP2X1 in Xenopus laevis oocytes. The class given is cell-based. The settings on record: 10 μM ATP, mean ± SD, triplicate. The text has this:
(§1) To evaluate the inhibitory response of an antagonist for a dilution series, an initial excitatory signal was evoked at a subtype-specific concentration of ATP. Next, the antagonist was applied at a test concentration for 60 s and then coapplied at the same test concentration of the antagonist with the identical subtype-specific concentration of ATP. The antagonized signal was then normalized against the preceding excitatory signal evoked by ATP for each individual oocyte tested. The pre- and post-antagonist signals were evoked by 10 μM ATP for hP2X1, 10 μM ATP for hP2X2, 1 μM ATP for hP2X3, 50 μM ATP for hP2X4, and 100 μM ATP for P2X7. For the K297V mutation in rP2X7, pre- and post-antagonist signals were evoked by 300 μM ATP. Each dataset was then fit to a nonlinear regression named “[inhibitor] vs. response – Variable slope (four parameters)” in GraphPad Prism 9 to produce a sigmoidal curve and afford an IC50 value. Each singular condition was used to generate an average which is reported plus or minus its SD between three discrete trials.

Another assay has as its target T2, hP2X2 (Homo sapiens, UniProt Q9UBL9).
T2 construct: The hP2X1-WT, hP2X2-WT, hP2X3-WT, hP2X4-WT, and hP2X7-WT constructs used for electrophysiology are similarly unmodified full-length, wild-type receptor constructs; expressed in transfected cells; host or cells: Xenopus laevis oocytes injected with mRNA made from pcDNA3.1x
T2 sequence (Q9UBL9 1-471): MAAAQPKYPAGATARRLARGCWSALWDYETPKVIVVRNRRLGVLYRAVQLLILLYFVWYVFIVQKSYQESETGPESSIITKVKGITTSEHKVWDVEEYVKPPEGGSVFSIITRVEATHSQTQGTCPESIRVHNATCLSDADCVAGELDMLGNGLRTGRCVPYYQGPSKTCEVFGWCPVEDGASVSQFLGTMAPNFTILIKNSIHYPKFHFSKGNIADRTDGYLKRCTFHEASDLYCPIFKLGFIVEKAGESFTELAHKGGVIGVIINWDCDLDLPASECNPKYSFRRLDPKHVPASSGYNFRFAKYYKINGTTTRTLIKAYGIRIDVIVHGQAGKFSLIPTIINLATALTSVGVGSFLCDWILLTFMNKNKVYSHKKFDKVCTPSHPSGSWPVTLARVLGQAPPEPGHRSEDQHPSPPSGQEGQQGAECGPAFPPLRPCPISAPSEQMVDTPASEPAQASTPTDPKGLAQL
The assay can be described thus: TEVC inhibition dose-response (IC50), hP2X2 in Xenopus laevis oocytes. The class given is cell-based. The settings on record: 10 μM ATP, mean ± SD, triplicate.
Text: as §1

This passage reports IC50 results from article PMC11451537, “P2X7 receptors exhibit at least three modes of allosteric antagonism” (Science Advances, 2024).

For the molecule `O=S(=O)(O)c1ccc(N=C2C=CC(=C(c3ccc(Nc4ccc(S(=O)(=O)O)cc4)cc3)c3ccc(Nc4ccc(S(=O)(=O)O)cc4)cc3)C=C2)cc1` [methyl blue], the 50% inhibitory concentration (IC50) on hP2X1 was found to be 400 ± 100 nM; at hP2X2, 13 ± 2 µM.

What is called IC50 is the concentration that inhibits the measured activity by half. Read a low IC50 as greater potency.
